Assay results published in patent US20210169892A1, “MODULATORS OF THE INTEGRATED STRESS PATHWAY” (Calico Life Sciences LLC, priority 2017, published 2021).

Test system: HEK293T cells carrying the ATF4 luciferase reporter
Assay: ATF4-Luc assay (in vitro model of vanishing white matter disease)
Assay type: cell-based
Conditions: Homo sapiens, HEK-293T; HEK293T cells with ATF4 luciferase reporter, 1 μg/mL tunicamycin, 7 hours, One Glo luminescence
Protocol: In order to test exemplary compounds of the invention in a cellular context, a stable VWMD cell line was first constructed. The ATF4 reporter was prepared by fusing the human full-length ATF4 5′-UTR (NCBI Accession No. BC022088.2) in front of the firefly luciferase (FLuc) coding sequence lacking the initiator methionine as described in Sidrauski et al (eLife 2013). The construct was used to produce recombinant retroviruses using standard methods and the resulting viral supernatant was used to transduce HEK293T cells, which were then subsequently selected with puromycin to generate a stable cell line.
HEK293T cells carrying the ATF4 luciferase reporter were plated on polylysine coated 384-well plates (Greiner Bio-one) at 30,000 cells per well. Cells were treated the next day with 1 μg/mL tunicamycin and 200 nM of a compound of Formula (I) for 7 hours. Luminescence was measured using One Glo (Promega) as specified by the manufacturer. Cells were maintained in DMEM with L-glutamine supplemented with 10% heat-inactivated FBS (Gibco) and Antibiotic-Antimycotic solution (Gibco).
Table 2 below summarizes the EC50 data obtained using the ATF4-Luc assay for exemplary compounds of the invention.

Row | Compound | EC50 [nM]
1 | O=C(COc1ccc(Cl)c(F)c1)NC12CCC(NC(=O)[C@H]3CCc4cc(F)ccc4O3)(CC1)[C@@H](O)C2 [Compound 202, (2R)—N-{(2S)-4-[2-(4-chloro-3-fluorophenoxy)acetamido]-2-hydroxybicyclo[2.2.2]octan-1-yl}-6-fluoro-3,4-dihydro-2H-1-benzopyran-2-carboxamide] | < 10
2 | CN1CC(C(=O)NC23CC(NC(=O)COc4ccc(Cl)c(F)c4)(C2)C3)Oc2ccc(Cl)cc21 (centres unmarked) [Compound 112, 6-chloro-N-{3-[2-(4-chloro-3-fluorophenoxy)acetamido]bicyclo[1.1.1]pentan-1-yl}-4-methyl-3,4-dihydro-2H-1,4-benzoxazine-2-carboxamide] | < 10
3 | CC(C)(C)OC(=O)CN1CC(C(=O)NC23CCC(NC(=O)COc4ccc(Cl)c(F)c4)(CC2)[C@@H](O)C3)Oc2ccc(Cl)cc21 (stereo partly drawn) [Compound 185, tert-butyl [6-chloro-2-({(3S)-4-[2-(4-chloro-3-fluorophenoxy)acetamido]-3-hydroxybicyclo[2.2.2]octan-1-yl}carbamoyl)-2,3-dihydro-4H-1,4-benzoxazin-4-yl]acetate] | 50 to 250
4 | O=C(COc1ccc(Cl)c(F)c1)NC12CCC(NC(=O)[C@H]3CCc4cc(F)ccc4O3)(CC1)C[C@@H]2O [Compound 106, (2R)—N-{(3S)-4-[2-(4-chloro-3-fluorophenoxy)acetamido]-3-hydroxybicyclo[2.2.2]octan-1-yl}-6-fluoro-3,4-dihydro-2H-1-benzopyran-2-carboxamide] | < 10
5 | O=C(COc1ccc(Cl)c(F)c1)NC12CC(NC(=O)C3CN(C(=O)CCC(F)(F)F)c4cc(Cl)ccc4O3)(C1)C2 (centres unmarked) [Compound 148, 6-chloro-N-{3-[2-(4-chloro-3-fluorophenoxy)acetamido]bicyclo[1.1.1]pentan-1-yl}-4-(4,4,4-trifluorobutanoyl)-3,4-dihydro-2H-1,4-benzoxazine-2-carboxamide] | 50 to 250
6 | O=C(COc1ccc(Cl)c(F)c1)NC12CC(NC(=O)C3CN(S(=O)(=O)CC(F)(F)F)c4cc(Cl)ccc4O3)(C1)C2 (centres unmarked) [Compound 183, 6-chloro-N-{3-[2-(4-chloro-3-fluorophenoxy)acetamido]bicyclo[1.1.1]pentan-1-yl}-4-(2,2,2-trifluoroethanesulfonyl)-3,4-dihydro-2H-1,4-benzoxazine-2-carboxamide] | 10 to 50
7 | O=C(COc1ccc(Cl)c(F)c1)NC12CC(NC(=O)[C@H]3CNc4cc(Cl)ccc4O3)(C1)C2 (single isomer, unassigned) [Compound 102] | < 10
8 | O=C(COc1ccc(Cl)c(F)c1)NC12CC(NC(=O)C3CN(C(=O)c4ccno4)c4cc(Cl)ccc4O3)(C1)C2 (centres unmarked) [Compound 154, 6-chloro-N-{3-[2-(4-chloro-3-fluorophenoxy)acetamido]bicyclo[1.1.1]pentan-1-yl}-4-(1,2-oxazole-5-carbonyl)-3,4-dihydro-2H-1,4-benzoxazine-2-carboxamide] | < 10
9 | CC(=O)N1CC(C(=O)NC23CC(NC(=O)COc4ccc(Cl)c(F)c4)(C2)C3)Oc2ccc(Cl)cc21 (centres unmarked) [Compound 157, 4-acetyl-6-chloro-N-{3-[2-(4-chloro-3-fluorophenoxy)acetamido]bicyclo[1.1.1]pentan-1-yl}-3,4-dihydro-2H-1,4-benzoxazine-2-carboxamide] | 10 to 50
10 | O=C(COc1ccc(Cl)c(F)c1)NC12CC(NC(=O)C3CN(C(=O)C(F)(F)C(F)(F)F)c4cc(Cl)ccc4O3)(C1)C2 (centres unmarked) [Compound 178, 6-chloro-N-{3-[2-(4-chloro-3-fluorophenoxy)acetamido]bicyclo[1.1.1]pentan-1-yl}-4-(2,2,3,3,3-pentafluoropropanoyl)-3,4-dihydro-2H-1,4-benzoxazine-2-carboxamide] | < 10
11 | O=C(COc1ccc(Cl)c(F)c1)NC12CCC(NC(=O)[C@@H]3COc4ccccc4O3)(CC1)[C@@H](O)C2 [Compound 127, (2S)—N-{(2S)-4-[2-(4-chloro-3-fluorophenoxy)acetamido]-2-hydroxybicyclo[2.2.2]octan-1-yl}-2,3-dihydro-1,4-benzodioxine-2-carboxamide] | 10 to 50
